System: animal fouling
Assay: Exposure in the Oosterschelde of painted PVC boards
Conditions: for Coverage CO (percentage coverage) / Dry weight Dw (dry weight of fouling organisms) / Fresh weight Fw (fresh weight of fouling organisms): 18 weeks exposure, each active 2.78% in dry paint film; for Coverage CO (percentage coverage): mean of front and backsides of panels; for Dry weight Dw (dry weight of fouling organisms) / Fresh weight Fw (fresh weight of fouling organisms): total of front and backsides; for Coverage % Eo (observed efficacy) / Dry weight % Eo (observed efficacy) / Fresh weight % Eo (observed efficacy): fouling inhibition vs control, 18 weeks, each active 2.78% in dry paint; for Coverage % Eo (observed efficacy): by coverage; for Dry weight % Eo (observed efficacy): by dry weight; for Fresh weight % Eo (observed efficacy): by fresh weight
Source text: • Test model: exposure in the Oosterschelde of painted PVC boards • Name of the primary compound: 4-bromo-2-(4-chloro-phenyl)-5-(trifluoromethyl)-1H-pyrrole-3-carbonitrile as component (I) • Name of the combination partners: capsaicine as component (II-d); • clonidine as component (II-e); • zosteric acid as component (II-r). • Test formulations: Paint formulation comprising xylene (47.7%), light aromatic solvent naphtha (CAS 64742-95-6) (16.2%), propylene oxide (0.06%), and zinc oxid (2.24%). Paint was diluted with 10% xylene to obtain the wet paint which was applied to the panels. • Dosage: Individual test compounds were added at a concentration of 1.8% by weight in the wet paint, resulting in 2.78% by weight in the dry paint film. • Test specimens: PVC boards with dimensions of 10×2×0.5 cm. […] Percentage coverage of the panels by fouling organisms as estimated visually. • 2. Fresh weight of fouling organisms on panels in gram. • 3. Dry weight of fouling organisms on panels in gram. Synergy evaluation: Synergy was tested according to the method of Limpel (Limpel, L. E., Schuldt, P. H., and Lamont, D. Weed Control Conf. 16: 48-53, 1962) as described in Colby (Colby, S. R., Weeds 15: 20-22, 1967) and Richer (Richer, D. L., Pesticide Science 19: 309-315, 1987). The single active ingredients were applied at a concentration of 2.78% in the dried coating. In the combinations, both actives were applied at 2.78%, resulting in […] of total active ingredient.

SMILES	Coverage CO (percentage coverage) [%]	Dry weight Dw (dry weight of fouling organisms) [gram]	Fresh weight Fw (fresh weight of fouling organisms) [gram]	Coverage % Eo (observed efficacy) [%]	Dry weight % Eo (observed efficacy) [%]	Fresh weight % Eo (observed efficacy) [%]
O=C(O)/C=C/c1ccc(OS(=O)(=O)O)cc1 [(II-r), zosteric acid]	57.5	2.05	5.40	−8.5	34.5	−18.4
Clc1cccc(Cl)c1N=C1NCCN1 [(II-e), clonidine]	72.5	3.92	6.10	−36.8	−25.6	−33.8
N#Cc1c(-c2ccc(Cl)cc2)[nH]c(C(F)(F)F)c1Br [(I), 4-bromo-2-(4-chlorophenyl)-5-(trifluoromethyl)-1H-pyrrole-3-carbonitrile]	42.5	1.94	2.90	19.8	37.9	36.0
COc1cc(CNC(=O)CCCC/C=C/C(C)C)ccc1O [(II-d), capsaicine]	65.0	3.58	5.50	−22.6	−14.6	−21.3

Source: patent publication US20090093443A1, “COMBINATIONS OF 4- BROMO-2-(4-CHLOROPHENYL)-5-(TRIFLUOROMETHYL)-1H-PYRROLE-3-CARBONITRILE AND BIOCIDAL COMPOUNDS” (JASSEN PHARMACEUTICA N.V., priority 2006, published 2009)
